# Test results published in patent US20090215025A1, “SMALL PEPTIDIC AND PEPTIDO-MIMETIC AFFINITY LIGANDS FOR FACTOR VIII AND FACTOR VIII-LIKE PROTEINS” (TECHNISCHE UNIVERSITAT MUNCHEN, priority 2005, published 2009).
# [ ]: non-standard residue; d: D form. Bpa = N[C@@H](Cc1ccc(C(=O)c2ccccc2)cc1)C(=O)O; 1Nal = N[C@@H](Cc1cccc2ccccc12)C(=O)O; 2Nal = N[C@@H](Cc1ccc2ccccc2c1)C(=O)O
# Assays:
# [1] = target: T1, plasma-derived (pd-) human Factor VIII (FVIII) (Homo sapiens, UniProt P00451); assay: Binding of 125I-labeled pd-FVIII to peptides immobilized on Toyopearl AF-Epoxy-650M resin (micro-beads assay)
# T1 construct: from tissue; host or cells: human blood plasma (FVIII concentrate)
# Procedure: Peptides P1 to P25 were immobilized on the Toyopearl AF-Epoxy-650M resin (Tosoh Biosep) as described by Jungbauer et al. For immobilization, 2.5 mg of each peptide was dissolved in 0.25 mL of the immobilization buffer (0.2 M sodium bicarbonate, pH 10.3), and 0.036 g of the dry resin powder (corresponding to 0.125 mL of swollen resin) was added, followed by incubation of the mixture with gentle rotation for 48 hours. Upon incubation for 48 hours the resin was washed once with immobilization buffer, once with 1 M NaCl and then 3 times with binding buffer, and binding of ^125I-labeled pd-FVIII to the peptide-coated and control resin was tested. The coupling density of each peptide in each of the reported experiments was as mentioned in Table 1. The control 0.25 mL portion of the resin was similarly treated in parallel experiment in the absence of peptide and was subsequently used as a control (designated as Background) in ^125I-pd-FVIII binding experiments. ^125I-pd-FVIII Bound/Background ratios were calculated as the amount of ^125I-pd-FVIII, bound to an immobilized peptide, divided by that bound to uncoated control resin, prepared as described above. This ratio represents a Signal/Noise ratio for the micro-beads assay, since ^125I-pd-FVIII bound to peptide represents the signal value and ^125I-pd-FVIII bound to peptide-uncoated resin represents the background (noise) value.
# Plasma-derived (pd-) human Factor VIII (FVIII) was purified from concentrate by immunoaffinity chromatography on an anti-FVIII monoclonal antibody column followed by subsequent concentration of pd-FVIII by ion-exchange chromatography using Resource Q HR5/5 column. To separate FVIII from vWf, concentrate was incubated in 0.35 M NaCl, 0.04 M CaCl2, prior to affinity purification.
# Trace amounts of vWf, which are potentially present in pd-FVIII preparation, were removed by passing pd-FVIII preparation through the column with anti-vWf high affinity monoclonal antibody, immobilized at the density 1.4 mg per mL of resin.
# Ten μg of purified pd-FVIII were iodinated using lactoperoxidase beads and 0.5 mCi of Na^125I.
# The resin with immobilized peptides was washed in the binding buffer (0.01 M Hepes, 0.1 M NaCl, 5 mM CaCl2, 0.01% Tween-80). Subsequently, the resin was diluted in the binding buffer as 1:7 slurry and aliquoted into Eppendorf tubes (40 μl per tube). ^125I-pd-FVIII (100000 cpm in 10 μl) was added to the tubes and the volume of the mixture was adjusted to 100 μl by adding 50 μl of the binding buffer containing 4% BSA to give a 2% final concentration of BSA. After 2 hours of incubation at room temperature on a rotator, the samples were washed 4 times in the binding. After each wash the tubes were centrifuged at 5000 rpm for 1 min in an Eppendorf microcentrifuge, supernatant was discarded, and the resin was re-suspended in the washing buffer, followed by centrifugation under the same conditions. After four washes the tubes with pellet without supernatant were counted for radioactivity. The resin without peptide was processed similarly to account for non-specific pd-FVIII binding to tubes and resin itself, and the radioactivity in this control tube was considered as a background value. Since ^125I-pd-FVIII contains the some fraction damaged during radiolabeling, binding was calculated as a percent of maximal achievable binding, determined in separate experiment with anti-FVIII Mab 8860-coated resin.
# All the measurements were performed in duplicates. Each experiment was performed using two independently prepared immobilized peptide samples. The data presented in each figure are the mean values of the four determinations: duplicate determination in the two assays performed with beads on which peptides were independently immobilized on the different days. […]
# pd-FVIII [2] = target: T2, pd-FVIII (Homo sapiens, UniProt P00451); assay: Affinity chromatography purification of FVIII on peptide-coated resin column (OD280, one-stage APTT activity); conditions: P1; Pure fVIII
# T2 construct: from tissue; host or cells: human blood plasma (FVIII concentrate)
# Procedure: The peptido-mimetic derivative P22 was immobilized on the Toyopearl resin as described in Example 1. 25 mg of peptide and 360 mg of resin were used. The resulting resin (˜1 ml) was packed in a glass column (Pharmacia-Biotech). The purification procedure was performed using a Waters 650E Advanced Protein Purification System. Buffer A was 0.01 M Hepes, 0.1 M NaCl, 5 mM CaCl2, 0.01% Tween-80 and Buffer B was 0.01 M Hepes, 1 M NaCl, 5 mM CaCl2, 0.01% Tween-80 (pH 6.8). The elution was monitored by a flow-through UV detector (Waters 490 E) by optical density at 280 nm (OD280). The elution fractions were then analyzed for their protein content by determining OD280 and FVIII activity was determined in a one-stage APTT assay using MLA Electra-800 automatic coagulation timer. The samples from elution fractions were analyzed by 10% PAGE followed by silver staining and Western blotting using monoclonal antibodies against FVIII.
# FVIII (0.5 mg), previously purified by immunoaffinity and ion-exchange chromatography as described above, was diluted by 0.01 M Hepes, 5 mM CaCl2, 0.01% Tween-80 to a final salt concentration of 0.1 M NaCl. The mixture was applied onto the P22-column, followed by wash with Buffer A, until the OD280 returned to background.
# The purification of FVIII was performed from cell-conditioned FBS-containing SF9 media, spiked with FVIII. FVIII (0.5 mg), previously purified by immunoaffinity and ion-exchange chromatography as described above, was mixed with cell-conditioned FBS-containing SF9 media, which was diluted with 0.01 M Hepes, 5 mM CaCl2, 0.01% Tween-80 to a final salt concentration of 0.1 M NaCl. The mixture was applied onto the column, followed by wash with Buffer A, until the OD280 returned to background. The wash with 85% Buffer A 15% Buffer B was performed to elute some of bound contaminating proteins.
# Peptide P1 was bonded to the resin as described in Example 1. 25 mg of peptide and 360 mg of resin were used. The resulting resin (˜1 ml) was packed in a glass column (Pharmacia-Biotech). A FVIII containing sample was purified as described with respect to Example 3, the only difference between the two experiments being the absence of a prelusion step with Buffer A in the present experiment.
# pd-FVIII [3] = target: T2, pd-FVIII; assay: as above; conditions: P1; FBS-containing conditioned DMEM spiked with FVIII
# [4] = Table 1, 125I-pd-FVIII Bound/Background ratio versus uncoated control resin
# [5] = Table 1, immobilized on Toyopearl AF-Epoxy-650M, percent of maximal achievable binding (anti-FVIII Mab 8860-coated resin), mean of four determinations
# T1 sequence (P00451 20-1667 limits assumed): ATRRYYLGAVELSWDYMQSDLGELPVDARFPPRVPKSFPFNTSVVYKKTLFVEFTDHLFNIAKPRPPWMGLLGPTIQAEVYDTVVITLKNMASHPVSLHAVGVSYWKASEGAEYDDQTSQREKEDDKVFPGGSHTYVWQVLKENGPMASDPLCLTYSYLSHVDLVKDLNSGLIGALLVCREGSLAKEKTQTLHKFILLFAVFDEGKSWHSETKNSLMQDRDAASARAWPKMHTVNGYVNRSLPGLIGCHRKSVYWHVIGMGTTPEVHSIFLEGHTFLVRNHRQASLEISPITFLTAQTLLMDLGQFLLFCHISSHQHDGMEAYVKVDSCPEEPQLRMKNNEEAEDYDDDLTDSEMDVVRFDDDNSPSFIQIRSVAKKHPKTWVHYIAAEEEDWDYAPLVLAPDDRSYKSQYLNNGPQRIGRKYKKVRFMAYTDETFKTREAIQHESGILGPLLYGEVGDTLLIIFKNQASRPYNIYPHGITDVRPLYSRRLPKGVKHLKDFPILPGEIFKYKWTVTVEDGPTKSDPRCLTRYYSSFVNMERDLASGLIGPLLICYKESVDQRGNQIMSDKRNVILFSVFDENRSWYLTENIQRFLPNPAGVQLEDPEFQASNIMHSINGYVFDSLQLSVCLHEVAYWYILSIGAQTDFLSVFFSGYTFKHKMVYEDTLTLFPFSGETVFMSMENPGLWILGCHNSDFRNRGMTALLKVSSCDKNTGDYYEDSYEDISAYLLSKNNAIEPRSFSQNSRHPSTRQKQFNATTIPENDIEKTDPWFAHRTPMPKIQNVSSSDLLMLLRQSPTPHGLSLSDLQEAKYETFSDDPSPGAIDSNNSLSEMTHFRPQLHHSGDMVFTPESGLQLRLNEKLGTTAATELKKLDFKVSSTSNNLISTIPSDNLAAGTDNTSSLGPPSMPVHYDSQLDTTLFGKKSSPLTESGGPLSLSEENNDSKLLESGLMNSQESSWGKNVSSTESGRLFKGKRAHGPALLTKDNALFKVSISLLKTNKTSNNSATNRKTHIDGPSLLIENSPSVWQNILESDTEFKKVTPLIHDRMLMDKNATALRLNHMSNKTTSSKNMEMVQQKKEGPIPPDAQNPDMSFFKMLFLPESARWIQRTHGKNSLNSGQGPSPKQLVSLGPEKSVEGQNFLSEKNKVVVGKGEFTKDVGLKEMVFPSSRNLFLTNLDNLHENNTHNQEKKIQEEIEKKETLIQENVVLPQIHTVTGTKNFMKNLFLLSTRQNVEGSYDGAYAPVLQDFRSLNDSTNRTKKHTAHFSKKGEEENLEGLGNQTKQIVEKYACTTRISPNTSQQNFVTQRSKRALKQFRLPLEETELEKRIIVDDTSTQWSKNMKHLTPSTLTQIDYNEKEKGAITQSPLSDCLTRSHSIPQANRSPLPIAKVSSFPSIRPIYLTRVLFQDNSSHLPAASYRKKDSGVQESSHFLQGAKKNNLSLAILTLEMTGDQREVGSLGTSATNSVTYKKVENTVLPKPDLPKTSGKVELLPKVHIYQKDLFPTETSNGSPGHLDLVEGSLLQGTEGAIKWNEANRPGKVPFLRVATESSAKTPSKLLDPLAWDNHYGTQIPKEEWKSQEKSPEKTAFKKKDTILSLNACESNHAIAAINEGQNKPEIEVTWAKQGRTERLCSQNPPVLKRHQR
# T1 sequence (P00451 1668-2351 limits assumed): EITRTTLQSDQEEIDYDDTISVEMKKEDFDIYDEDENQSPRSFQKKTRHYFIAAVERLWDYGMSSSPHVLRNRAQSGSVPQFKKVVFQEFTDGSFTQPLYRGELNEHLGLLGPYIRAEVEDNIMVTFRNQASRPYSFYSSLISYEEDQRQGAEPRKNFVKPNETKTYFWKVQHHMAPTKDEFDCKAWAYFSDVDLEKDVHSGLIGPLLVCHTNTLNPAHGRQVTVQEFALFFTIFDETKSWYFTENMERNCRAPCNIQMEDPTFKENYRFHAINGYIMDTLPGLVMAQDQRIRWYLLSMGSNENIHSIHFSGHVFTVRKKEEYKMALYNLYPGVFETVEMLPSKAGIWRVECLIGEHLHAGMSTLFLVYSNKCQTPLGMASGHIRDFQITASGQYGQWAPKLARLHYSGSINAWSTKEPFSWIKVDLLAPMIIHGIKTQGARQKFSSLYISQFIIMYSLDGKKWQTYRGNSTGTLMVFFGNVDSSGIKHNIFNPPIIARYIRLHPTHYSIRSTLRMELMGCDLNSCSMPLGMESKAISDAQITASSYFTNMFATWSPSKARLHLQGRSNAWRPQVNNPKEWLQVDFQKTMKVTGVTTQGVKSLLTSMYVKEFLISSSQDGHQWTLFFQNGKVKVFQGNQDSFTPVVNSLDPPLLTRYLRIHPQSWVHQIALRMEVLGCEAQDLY
# T2 sequence (P00451 20-1667 limits assumed): as the sequence (P00451 20-1667 limits assumed) above
# T2 sequence (P00451 1668-2351 limits assumed): as the sequence (P00451 1668-2351 limits assumed) above
Compound,"Binding, rel. to control [1, 4]","% Binding pdFVIII [1, 5]",also measured
Ac-Trp-Glu-Tyr-Cys-NH2 (Ac-WEYC-NH2) [Compound P2],18.9 ± 2.0,53.6 ± 5.7%,–
"ECYYEHWS [scrambled, reference compound]",–,–,"% Binding pdFVIII ([1]; Table 2, comparative compound immobilized on Toyopearl AF-Epoxy-650M): 6.5 ± 0.5%; Binding, rel. to control ([1]; Table 2, ratio versus uncoated resin): 4.1 ± 0.3"
H-D-Cys-D-Tyr-D-Glu-D-Trp-OH [Compound P7],19.8 ± 0.3,56.1 ± 0.9%,–
H-Trp-Glu-Tyr-Aha-Cys-OH [Compound P5],22.2 ± 1.9,42.7 ± 2.3%,–
H-Trp-Glu-Tyr-Cys-OH (H-WEYC-OH) [Compound P1],20.9 ± 1.7,47.6 ± 4.0%,"Activity, Elution (pd-FVIII [2]): 552 IU/ml; Activity, Flow-through (pd-FVIII [2]): 9 IU/ml; OD 280, Elution (pd-FVIII [2]): 0.108; OD 280, Flow-through (pd-FVIII [2]): 0.02; Purification, times (pd-FVIII [2]): 2 times; Activity, Elution (pd-FVIII [3]): 66 IU/ml; Activity, Flow-through (pd-FVIII [3]): 6 IU/ml; OD 280, Elution (pd-FVIII [3]): 0.08; OD 280, Flow-through (pd-FVIII [3]): 0.49; Purification, times (pd-FVIII [3]): 13 times"
H-Trp-Glu-Tyr-Gly-Aha-Cys-OH [Compound P6],15.2 ± 0.7,43.1 ± 2.0%,–
H-Trp-Glu-Tyr-Gly-Cys-OH (H-WEYGC-OH) [Compound P4],27.4 ± 1.3,52.7 ± 2.5%,–
H-Trp-Glu-Tyr-homo-Cys-OH [Compound P3],21.9 ± 1.3,38.4 ± 2.3%,–
H-WE[1Nal]C-OH [Compound P9],23.8 ± 2.2,60.9 ± 5.5%,–
H-[1Nal]EYC-OH [Compound P13],26.1 ± 2.3,66.8 ± 5.9%,–
H-[2Nal]EYC-OH [Compound P14],22.7 ± 2.4,58.1 ± 6.1%,–
H-[Bpa]EYC-OH [Compound P12],22.3 ± 0.5,57.0 ± 1.39%,–

# Continued, in another order:
"Binding, rel. to control [1, 4]","% Binding pdFVIII [1, 5]",Compound,also measured
22.7 ± 0.8,53.7 ± 1.9%,O=C(O)CCC(NCCc1c[nH]c2ccccc12)C(=O)NC(Cc1ccc(O)cc1)C(=O)NC(CS)C(=O)O (stereo not shown) [Compound P25],–
24.7 ± 2.7,62.8 ± 6.9%,H-Trp-Asp-Tyr-Cys-OH (H-WDYC-OH) [Compound P11],–
8.7 ± 0.1,24.7 ± 0.1%,H-Trp-Glu-Phe-Cys-OH (H-WEFC-OH) [Compound P8],–
19.0 ± 3.0,54.1 ± 8.4%,H-Trp-Glu-Tyr(OMe)-Cys-OH [Compound P10],–
24.7 ± 0.3,70.1 ± 0.8%,IAA-Asp-Tyr-Cys-OH [Compound P16],–
20.2 ± 2.5,57.2 ± 7.2%,IBA-Asp-Tyr-Cys-OH [Compound P18],–
24.7 ± 1.5,62.7 ± 3.9%,IBA-Glu-Tyr-Cys-OH [Compound P17],–
21.4 ± 1.4,60.7 ± 4.1%,IPA-Asp-Tyr-Cys-OH [Compound P20],–
18.7 ± 1.7,53.2 ± 4.9%,IPA-Glu-Tyr-Cys-OH [Compound P19],–
